DC50 data for 31 molecules are collected here from patent US20260306640A1, “TECHNOLOGIES TARGETING CELL STATES” (Auron Therapeutics, Inc., priority 2023, published 2026).

The target in one assay is KAT2B (Homo sapiens, UniProt Q92831). The experiment in a line: KAT2B degradation, Western Blot (Jess), NCI-H1048 cells. Format: cell-based. Details: degrader, Western blot (Jess). Conditions: NCI-H1048 cells, KAT2B, 24 h, Western Blot, vs DMSO; read-out: KAT2B NCI-H1048 DC50. As to the method: (§1) MOLM-13 cells or NCI-H1048 cells were used for Western Blot analysis of KAT2A degradation. KAT2B degradation can be measured in a similar manner with NCI-H1048 cells.
KAT2B, sequence (Q92831 whole entry): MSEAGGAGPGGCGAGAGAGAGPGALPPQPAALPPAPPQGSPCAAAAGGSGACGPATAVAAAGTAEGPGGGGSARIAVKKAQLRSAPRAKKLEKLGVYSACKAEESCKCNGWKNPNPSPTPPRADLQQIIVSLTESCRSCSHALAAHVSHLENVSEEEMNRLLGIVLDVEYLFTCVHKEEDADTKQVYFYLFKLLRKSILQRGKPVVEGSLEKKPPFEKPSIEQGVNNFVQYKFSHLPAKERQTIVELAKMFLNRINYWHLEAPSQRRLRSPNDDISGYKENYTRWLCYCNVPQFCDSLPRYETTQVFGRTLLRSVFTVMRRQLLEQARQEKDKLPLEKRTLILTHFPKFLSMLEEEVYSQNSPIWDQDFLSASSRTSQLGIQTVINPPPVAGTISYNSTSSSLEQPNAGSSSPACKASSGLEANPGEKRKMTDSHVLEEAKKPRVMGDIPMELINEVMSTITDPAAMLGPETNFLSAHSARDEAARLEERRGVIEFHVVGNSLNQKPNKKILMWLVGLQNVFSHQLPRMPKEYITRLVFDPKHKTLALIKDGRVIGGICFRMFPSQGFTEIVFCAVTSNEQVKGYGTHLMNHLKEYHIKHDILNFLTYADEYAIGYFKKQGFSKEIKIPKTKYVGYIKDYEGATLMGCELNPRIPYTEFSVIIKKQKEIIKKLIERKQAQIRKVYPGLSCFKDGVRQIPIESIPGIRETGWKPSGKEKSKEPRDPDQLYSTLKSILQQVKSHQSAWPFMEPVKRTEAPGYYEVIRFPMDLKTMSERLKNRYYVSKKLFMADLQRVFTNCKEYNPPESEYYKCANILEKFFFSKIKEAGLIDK
(§2) H1048 cells were maintained at 37° C. in 5% CO2 and 90% humidity in HITES medium with 5% fetal bovine serum (FBS). HITES medium was […] with the following additions: 0.005 mg/ml Insulin, 0.01 mg/ml Transferrin, 30 nM Sodium selenite, 10 nM Hydrocortisone, 10 nM beta-estradiol, and extra 2 mM L-glutamine (for final concentration of 4.5 mM). Cells were plated in full media at 1 million cells/2 mL in a 6-well tissue culture treated plate with or without compounds for 24 h at 37° C. in 5% CO2.
(§3) MOLM-13 cells or NCI-H1048 cells were washed with PBS, then lysed with RIPA buffer containing 1×protease and phosphatase inhibitors (SantaCruz Biotechnologies Cat #sc-24948A). Protein was isolated by centrifugation at 12,000×g for 10 minutes at 4° C. and supernatant was collected. Protein was quantified via Bradford assay. Samples were diluted to 4 μg lysate in 16 μL RIPA buffer and then 4 μL of Jess Sample Buffer. Samples were heated at 95° C. for 5 minutes. Samples were loaded onto 12-230 kDa Jess™ Separation Module, 8×25 capillary cartridges (SM-W004, Biotechne). Antibodies loaded were: Primary antibody for KAT2A (GCN5L2 (C26A10) Rabbit mAb (3305, CST)) and for KAT2B (PCAF (C14G9)) Rabbit mAb (3378, CST) at 1:1000 and Anti-Rabbit Detection Module for Jess™ (Cat No #DM-001, Biotechne). Signal was detected by chemiluminescence.
(§4) DC50 values were determined from percent reduction of protein as compared to the DMSO control.
In general terms: In western blotting, separated proteins are transferred to a membrane and probed.

A further assay concerns the target KAT2A (Homo sapiens, UniProt Q92830). Briefly: KAT2A degradation, Western Blot (Jess), NCI-H1048 cells. Conditions: NCI-H1048 cells, KAT2A, 24 h, Western Blot, vs DMSO; read-out: KAT2A NCI-H1048 DC50. More on the design: degrader, Western blot (Jess). Format: cell-based. The protocol: as §1, §2, §3, §4

Where only a bound is given, the exact number is not on record here.

KAT2A, sequence (Q92830 whole entry): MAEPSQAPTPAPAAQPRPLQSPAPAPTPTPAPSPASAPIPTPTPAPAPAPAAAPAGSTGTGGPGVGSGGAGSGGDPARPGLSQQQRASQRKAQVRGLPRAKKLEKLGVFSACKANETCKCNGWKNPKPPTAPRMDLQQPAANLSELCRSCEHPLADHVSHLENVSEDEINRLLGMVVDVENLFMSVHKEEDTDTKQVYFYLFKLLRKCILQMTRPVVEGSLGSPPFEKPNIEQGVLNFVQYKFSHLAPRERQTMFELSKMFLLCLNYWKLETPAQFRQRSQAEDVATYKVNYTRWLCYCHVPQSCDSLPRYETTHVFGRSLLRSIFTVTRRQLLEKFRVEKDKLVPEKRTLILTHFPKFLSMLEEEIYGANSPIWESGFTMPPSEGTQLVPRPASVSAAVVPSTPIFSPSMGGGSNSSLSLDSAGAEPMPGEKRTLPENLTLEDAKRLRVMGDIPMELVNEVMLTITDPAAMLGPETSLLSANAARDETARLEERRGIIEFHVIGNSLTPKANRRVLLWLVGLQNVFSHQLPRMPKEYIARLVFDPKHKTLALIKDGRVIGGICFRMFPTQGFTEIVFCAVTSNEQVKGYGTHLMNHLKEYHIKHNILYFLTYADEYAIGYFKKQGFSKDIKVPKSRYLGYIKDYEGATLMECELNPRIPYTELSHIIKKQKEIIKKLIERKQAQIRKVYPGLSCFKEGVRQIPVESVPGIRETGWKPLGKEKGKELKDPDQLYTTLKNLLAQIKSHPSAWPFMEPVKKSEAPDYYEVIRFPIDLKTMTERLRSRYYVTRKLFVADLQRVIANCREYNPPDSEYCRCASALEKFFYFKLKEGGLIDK

For orientation: DC50 means the concentration giving 50% degradation. Take `CN1C[C@H](Nc2cnn(C)c(=O)c2Cl)C[C@H](c2ccc(C(=O)N3CCC4(CC3)CCN(c3ccc5c(C6CCC(=O)NC6=O)cncc5c3)CC4)cc2)C1` (stereo partly shown) [Compound 296]: the DC50 on KAT2B and at KAT2A was less than 1 nM each time. On to `CN1C[C@H](Nc2cnn(C)c(=O)c2Cl)C[C@H](c2ccc(C(=O)N3CCC4(CC3)CCN(c3ccc(C5CCC(=O)NC5=O)c(C(F)(F)F)c3)CC4)cc2)C1` (stereo partly shown) [Compound 222], for which the DC50 on KAT2B and at KAT2A was more than 30 nM throughout. For the molecule `CN1C[C@H](Nc2cnn(C)c(=O)c2Cl)C[C@H](c2ccc(C(=O)N3CCC4(CC3)CCN(c3ccc(C5CCC(=O)NC5=O)cc3C(F)(F)F)CC4)cc2)C1` (stereo partly shown) [Compound 227], the DC50 at KAT2B was 1 to 30 nM; at KAT2A, less than 1 nM.

`CN1C[C@H](Nc2cnn(C)c(=O)c2Br)C[C@H](c2ccc(C(=O)N3CCC4(CC3)CCN(c3cnc(C(=O)NC5CCC(=O)NC5=O)c(F)c3)CC4)cc2)C1` (stereo partly shown) [Compound 404]: the figures for the 50% degradation concentration (DC50) on KAT2B and at KAT2A were 1 to 30 nM and less than 1 nM, respectively.

With `CN1C[C@H](Nc2cnn(C)c(=O)c2Br)C[C@H](c2ccc(C(=O)N3CCC4(CC3)CCN(c3ccc(C5CCC(=O)NC5=O)cc3OC(F)(F)F)CC4)cc2)C1` (stereo partly shown) [Compound 259], the DC50 is 1 to 30 nM at KAT2B and less than 1 nM on KAT2A. Take `CN1C[C@H](Nc2cnn(C)c(=O)c2Cl)C[C@H](c2ccc(C(=O)N3CCC4(CC3)CCN(c3ccc(C5CCC(=O)NC5=O)c(OC(F)(F)F)c3)CC4)cc2)C1` (stereo partly shown) [Compound 277]: the DC50 on KAT2B and on KAT2A was more than 30 nM throughout. For `Cc1c(C2CCC(=O)NC2=O)ccc(N2CCC3(CCN(C(=O)c4ccc([C@H]5C[C@@H](Nc6cnn(C)c(=O)c6Cl)CN(C)C5)cc4)CC3)CC2)c1F` (stereo partly shown) [Compound 253], the DC50 at KAT2A is less than 1 nM. `Cc1ncsc1-c1ccc(CNC(=O)[C@@H]2C[C@@H](O)CN2C(=O)[C@@H](NC(=O)CCCCCCCCNC(=O)c2ccc([C@H]3C[C@@H](Nc4cnn(C)c(=O)c4Br)CN(C)C3)cc2)C(C)(C)C)cc1` [Compound 420]: the 50% degradation concentration (DC50) on KAT2B and on KAT2A was more than 30 nM in each case. On to `C[C@@H]1CN(c2cccc(C3CCC(=O)NC3=O)c2)C[C@H](C)N1Cc1ccc([C@H]2C[C@@H](Nc3cnn(C)c(=O)c3Br)CN(C)C2)cc1` (stereo partly shown) [Compound 370], for which, at KAT2A, the 50% degradation concentration (DC50) fell in the range of 1 to 30 nM. As for `COc1cc(C2CCC3(CC2)CCN(C(=O)c2ccc([C@H]4C[C@@H](Nc5cnn(C)c(=O)c5C)CN(C)C4)cc2)CC3)ccc1C1CCC(=O)NC1=O` (stereo partly shown) [Compound 320], the DC50 on KAT2B is 1 to 30 nM; at KAT2A it was less than 1 nM. For the molecule `CN1C[C@H](Nc2cnn(C)c(=O)c2Br)C[C@H](c2ccc(CN3CCN(c4ccc5nc(C6CCC(=O)NC6=O)ccc5c4)CC3)cc2)C1` (stereo partly shown) [Compound 385], the DC50 at KAT2B and on KAT2A was 1 to 30 nM throughout. As for `CN1C[C@H](Nc2cnn(C)c(=O)c2Br)C[C@H](c2ccc(CN3CCN(c4cc(C5CCC(=O)NC5=O)ccn4)CC3)cc2)C1` (stereo partly shown) [Compound 355], the DC50 on KAT2B is more than 30 nM; at KAT2A, 1 to 30 nM. Turning to `Cc1cc(N2CCC(N3CCN(C(=O)c4ccc([C@H]5C[C@@H](Nc6cnn(C)c(=O)c6Cl)CN(C)C5)cc4)CC3)CC2)ccc1C1CCC(=O)NC1=O` (stereo partly shown) [Compound 310], the results for the DC50 on KAT2B and on KAT2A were more than 30 nM and less than 1 nM, respectively. On the same counts, the results for `CN1C[C@H](Nc2cnn(C)c(=O)c2Br)C[C@H](c2ccc(CN3CCN(C4CCC(N5CCC(=O)NC5=O)CC4)CC3)cc2)C1` (stereo partly shown) [Compound 206] are more than 30 nM and more than 30 nM. Consider `CN1C[C@H](Nc2cnn(C)c(=O)c2Br)C[C@H](c2ccc(C(=O)N3CCC(c4ccc5c(C6CCC(=O)NC6=O)nccc5c4)CC3)cc2)C1` (stereo partly shown) [Compound 377], for which the DC50 on KAT2B is more than 30 nM; at KAT2A, less than 1 nM. Consider `Cc1cc(N2CCC3(CCN(C(=O)c4ccc([C@H]5C[C@@H](Nc6cnn(C)c(=O)c6Br)CN(C)C5)cc4)CC3)CC2)ccc1C1CCC(=O)NC1=O` (stereo partly shown) [Compound 265], for which the DC50 at KAT2B and on KAT2A was less than 1 nM in each case. Take `CN1C[C@H](Nc2cnn(C)c(=O)c2Br)C[C@H](c2ccc(N3CCC(Oc4cccc(C5CCC(=O)NC5=O)c4)CC3)cc2)C1` (stereo partly drawn) [Compound 434, 3-(3-((1-(4-((3R,5R)-5-((5-bromo-1-methyl-6-oxo-1,6-dihydropyridazin-4-yl)amino)-1-methylpiperidin-3-yl)phenyl)piperidin-4-yl)oxy)phenyl)piperidine-2,6-dione]: the DC50 on KAT2B and at KAT2A was less than 1 nM in each case.

For the molecule `C[C@@H]1CN(c2cccc(C3CCC(=O)NC3=O)c2)C[C@H](C)N1Cc1ccc([C@H]2C[C@@H](Nc3cnn(C)c(=O)c3Cl)CN(C)C2)cc1` (stereo partly shown) [Compound 371], the DC50 on KAT2A is 1 to 30 nM. On to `CN1C[C@H](Nc2cnn(C)c(=O)c2Cl)C[C@H](c2ccc(CN3CCN(c4cccc(CN5CCC(=O)NC5=O)c4)CC3)cc2)C1` [Compound 393], for which the DC50 on KAT2A was more than 30 nM. In the case of `COc1cc(N2CCC3(CCN(C(=O)c4ccc([C@H]5C[C@@H](Nc6cnn(C)c(=O)c6Br)CN(C)C5)cc4)CC3)CC2)cc(F)c1C1CCC(=O)NC1=O` (stereo partly shown) [Compound 280], the DC50 at KAT2A was in the range of 1 to 30 nM. Take `CN1C[C@H](Nc2cnn(C)c(=O)c2Cl)C[C@H](c2ccc(CN3CCC(c4ccc5c(c4)C(=O)N(C4CCC(=O)NC4=O)C5=O)C(F)(F)C3)cc2)C1` (stereo partly shown) [Compound 392]: on KAT2A, the DC50 was in the range of 1 to 30 nM.

As to `Cc1ncsc1-c1ccc(CNC(=O)[C@@H]2C[C@@H](O)CN2C(=O)[C@@H](NC(=O)C2CCN(C3CCN(C(=O)c4ccc([C@H]5C[C@@H](Nc6cnn(C)c(=O)c6Br)CN(C)C5)cc4)CC3)CC2)C(C)(C)C)cc1` [Compound 410], on KAT2B, the DC50 is more than 30 nM.

`COc1cc(N2CCC3(CCN(C(=O)c4ccc([C@H]5C[C@@H](Nc6cnn(C)c(=O)c6Cl)CN(C)C5)cc4)CC3)CC2)cc(F)c1C1CCC(=O)NC1=O` (stereo partly shown) [Compound 281]: at KAT2A, the DC50 was 1 to 30 nM. As for `C[C@H](Nc1nn(C)c(=O)n(C)c1=O)[C@H](c1ccc(C(=O)N2CCC3(CC2)CCN(c2ccc(C4CCC(=O)NC4=O)cc2)CC3)cc1)N(C)C` (stereo partly drawn) [Compound 431, 6-(((1S,2S)-1-(dimethylamino)-1-(4-(9-(4-(2,6-dioxopiperidin-3-yl)phenyl)-3,9-diazaspiro[5.5]undecane-3-carbonyl)phenyl)propan-2-yl)amino)-2,4-dimethyl-1,2,4-triazine-3,5(2H,4H)-dione], on KAT2A, the DC50 lay within 1 to 30 nM. With `Cc1nnc2c3ccccc3c(N[C@@H](C)[C@H](c3ccc(CN4CCN(c5cccc(C6CCC(=O)NC6=O)c5)CC4)cc3)N(C)C)nn12` (stereo partly drawn) [Compound 428, 3-(3-(4-(4-((1S,2S)-1-(dimethylamino)-2-((3-methyl-[1,2,4]triazolo[3,4-a]phthalazin-6-yl)amino)propyl)benzyl)piperazin-1-yl)phenyl)piperidine-2,6-dione], the DC50 at KAT2A is more than 30 nM.

With `CN1C[C@H](Nc2cnn(C)c(=O)c2Br)C[C@H](c2ccc(C(=O)N3CCC4(CC3)CCN(c3ccc5c(N6CCC(=O)NC6=O)cncc5c3)CC4)cc2)C1` [Compound 375], the DC50 on KAT2A is 1 to 30 nM. Regarding `Cc1nnc2c3ccccc3c(N[C@@H](C)[C@H](c3ccc(C(=O)N4CCC5(CC4)CCN(c4ccc(C6CCC(=O)NC6=O)cc4)CC5)cc3)N(C)C)nn12` (stereo partly drawn) [Compound 426, 3-(4-(9-(4-((1S,2S)-1-(dimethylamino)-2-((3-methyl-[1,2,4]triazolo[3,4-a]phthalazin-6-yl)amino)propyl)benzoyl)-3,9-diazaspiro[5.5]undecan-3-yl)phenyl)piperidine-2,6-dione], the DC50 at KAT2A was in the range of 1 to 30 nM. Turning to `Cc1cc(N2CCC3(CCN(C(=O)c4ccc([C@H]5C[C@@H](Nc6cnn(C)c(=O)c6Br)CN(C)C5)cc4)CC3)CC2)cc(C)c1C1CCC(=O)NC1=O` (stereo partly shown) [Compound 282], the DC50 on KAT2A was less than 1 nM.

As to `CC(=O)N[C@H](C(=O)N1C[C@H](O)C[C@H]1C(=O)NCc1ccc(-c2scnc2C)cc1OCCCCNC(=O)c1ccc([C@H]2C[C@@H](Nc3cnn(C)c(=O)c3Br)CN(C)C2)cc1)C(C)(C)C` [Compound 406, (2S,4R)-1-((S)-2-acetamido-3,3-dimethylbutanoyl)-N-(2-(4-(4-((3R,5R)-5-((5-bromo-1-methyl-6-oxo-1,6-dihydropyridazin-4-yl)amino)-1-methylpiperidin-3-yl)benzamido)-butoxy)-4-(4-methylthiazol-5-yl)benzyl)-4-hydroxypyrrolidine-2-carboxamide], on KAT2A, the DC50 is more than 30 nM.

Regarding `CN1C[C@H](Nc2cnn(C)c(=O)c2Br)C[C@H](c2ccc(N3CCC4(CC3)CCN(c3cccc(CN5CCC(=O)NC5=O)c3)CC4)cc2)C1` [Compound 400], the half-maximal degradation concentration (DC50) at KAT2A is 1 to 30 nM. As to `CN1C[C@H](Nc2cnn(C)c(=O)c2Br)C[C@H](c2ccc(CN3CCN(c4cncc(C5CCC(=O)NC5=O)c4)CC3)cc2)C1` (stereo partly shown) [Compound 345], the DC50 at KAT2A was more than 30 nM.
